Measured values: US8119681B2, “2-[1-phenyl-5-hydroxy or methoxy-4alpha-methyl-hexahydrocyclopenta [ƒ]indazole-5-YL]ethyl phenyl derivatives as glucocorticoid receptor ligands” (Merck Sharp & Dohme Corp., priority 2006, dated 2012)

What was measured:
human GR [1] = target: T1, human GR (Homo sapiens, UniProt P04150); experiment: Transrepression Assay (GITAR), TNFα-β-lactamase reporter gene in U937 cells; type: cell-based; set-up: U937 cells contain an endogenous glucocorticoid receptor (GR); endogenous in cells; host or cells: U937 cells stably transfected with the TNF-α promoter/β-lactamase reporter only; conditions: for EC50: IP = inflection point, read-out: Transrepression U937 Cells GITAR IP; for GITAR > GRAMM % SEP: separation of GITAR Emax over GRAMMER Emax; for Emax: U-937
T1 sequence (P04150 1-777): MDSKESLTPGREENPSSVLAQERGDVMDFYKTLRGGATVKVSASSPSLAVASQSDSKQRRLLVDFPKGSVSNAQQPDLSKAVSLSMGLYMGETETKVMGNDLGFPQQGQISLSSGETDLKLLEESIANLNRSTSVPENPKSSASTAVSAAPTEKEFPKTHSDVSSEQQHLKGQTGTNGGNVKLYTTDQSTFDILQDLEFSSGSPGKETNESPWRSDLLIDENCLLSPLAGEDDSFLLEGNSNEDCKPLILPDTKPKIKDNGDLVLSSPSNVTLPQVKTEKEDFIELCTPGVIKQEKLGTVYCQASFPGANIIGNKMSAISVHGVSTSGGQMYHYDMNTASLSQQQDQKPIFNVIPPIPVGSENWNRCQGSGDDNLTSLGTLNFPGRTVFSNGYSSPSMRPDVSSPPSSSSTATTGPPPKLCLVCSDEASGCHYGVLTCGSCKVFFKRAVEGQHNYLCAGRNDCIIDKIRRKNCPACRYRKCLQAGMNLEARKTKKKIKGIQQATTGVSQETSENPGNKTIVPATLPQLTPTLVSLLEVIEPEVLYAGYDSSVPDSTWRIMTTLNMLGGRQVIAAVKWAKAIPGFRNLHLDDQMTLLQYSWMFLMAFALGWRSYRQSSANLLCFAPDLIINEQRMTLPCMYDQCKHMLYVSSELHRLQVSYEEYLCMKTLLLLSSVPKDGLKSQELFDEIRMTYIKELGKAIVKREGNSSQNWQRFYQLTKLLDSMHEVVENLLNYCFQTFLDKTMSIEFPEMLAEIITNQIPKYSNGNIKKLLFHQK
Method in brief: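 Reporter readout used CCF2-AM loading for 70–90 min at room temperature after overnight (~18 h, 37 °C) PMA (5 ng/ml final) and LPS (100 ng/ml final) stimulation of compound-treated (30–45 min) TNFα-β-lactamase U937 cells expressing native GR. Activity was normalised to 100 nM dexamethasone repression.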

human GR [2] = target: T1, human GR; experiment: Trans-Activation Modulation of Glucocorticoid Receptor (GRAMMER), MMTV-LUC reporter gene; type: cell-based; set-up: endogenous in cells; conditions: for Emax: A549, read-out: Transactivation A549 Cells GRAMMER Emax (%); for EC50: Table 1, A549 cells, IP = inflection point, read-out: Transactivation A549 Cells GRAMMER IP
[3] = 100 nM dexamethasone = 100% activity, read-out: maximal activity in the transrepression assay
[4] = Table 1, U937 cells, activity repressed by 100 nM dexamethasone = 100%, read-out: Transrepression U937 Cells GITAR Emax (%)

Structure (SMILES) | EC50 (human GR [1]; Table 1, U937 cells) | GITAR > GRAMM % SEP (human GR [1]; Table 1) | Emax (human GR [1]; [3]) | Emax (human GR [1]; [4]) | Emax (human GR [2]) | EC50 (human GR [2])
C[C@]12Cc3cnn(-c4ccc(F)cc4)c3C=C1CC[C@@]2(O)CCc1cccc(F)c1CC(N)=O [Example 194, 2-(2-fluoro-6-{2-[(4αS,5R)-1-(4-fluorophenyl)-5-hydroxy-4α-methyl-1,4,4α,5,6,7-hexahydrocyclopenta[f]indazol-5-yl]ethyl}phenyl)acetamide] | 87 nM | 41% | 5 to 100% | 78% | 38% | 99 nM
C[C@]12Cc3cnn(-c4ccc(F)cc4)c3C=C1CC[C@@]2(O)CCc1cccc(Cl)c1CC(N)=O [Example 197, 2-(2-chloro-6-{2-[(4αS,5R)-1-(4-fluorophenyl)-5-hydroxy-4α-methyl-1,4,4α,5,6,7-hexahydrocyclopenta[f]indazol-5-yl]ethyl}phenyl)acetamide] | 138 nM | 21% | 5 to 100% | 67% | 46% | 249 nM
CCC(O)(C(N)=O)c1ccccc1CC[C@]1(O)CCC2=Cc3c(cnn3-c3ccc(F)cc3)C[C@@]21C (stereo partly drawn) [Example 199, 2-(2-{2-[(4αS,5R)-1-(4-fluorophenyl)-5-hydroxy-4α-methyl-1,4,4α,5,6,7-hexahydrocyclopenta[f]indazol-5-yl]ethyl}phenyl)-2-hydroxybutanamide] | 77 nM | 32% | 5 to 100% | 68% | 36% | 83 nM
CC(C)C(O)(C(N)=O)c1ccccc1CC[C@]1(O)CCC2=Cc3c(cnn3-c3ccc(F)cc3)C[C@@]21C (stereo partly drawn) [Example 201, 2-(2-{2-[(4αS,5R)-1-(4-fluorophenyl)-5-hydroxy-4α-methyl-1,4,4α,5,6,7-hexahydrocyclopenta[f]indazol-5-yl]ethyl}phenyl)-2-hydroxy-3-methylbutanamide] | 40 nM | 38% | 5 to 100% | 78% | 40% | 47 nM
